Experimental findings from US12559529B2, “NPY2 receptor agonists” (Boehringer Ingelheim International GmbH, priority 2019, dated 2026) are described below.

pKi: −log10 of the molar value.

For this assay, the target named is T1, Human Neuropeptide Y2 Receptor (Homo sapiens, UniProt P49146).
T1 construct: purchased CHEMICON HTS066M
T1 sequence (P49146 1-381): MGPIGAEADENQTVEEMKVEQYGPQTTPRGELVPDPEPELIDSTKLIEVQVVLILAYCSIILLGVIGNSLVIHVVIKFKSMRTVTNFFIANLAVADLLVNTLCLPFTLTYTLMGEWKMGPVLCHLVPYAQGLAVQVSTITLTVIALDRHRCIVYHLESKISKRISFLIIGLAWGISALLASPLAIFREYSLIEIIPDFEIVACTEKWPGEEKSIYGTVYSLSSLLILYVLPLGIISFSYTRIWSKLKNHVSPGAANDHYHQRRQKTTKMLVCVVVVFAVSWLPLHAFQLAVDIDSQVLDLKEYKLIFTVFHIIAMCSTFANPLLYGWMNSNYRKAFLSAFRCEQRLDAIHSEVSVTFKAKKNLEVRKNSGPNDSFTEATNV
The experiment in a line: Radioligand binding competition assay (RLB). The following applies: Table 3; human 125I-PYY (1-36) 0.02 nM, Y2 receptor membranes; read-out: Ki. An outline of the steps: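 Competition binding at commercial human NPY Y2 membrane preparations, 0.5 μg protein per well, 2 h incubation at room temperature. Bound and free ligand were separated on GF/C filters and counted; IC50 was fitted by nonlinear regression.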

Broadly, the pKi is the Ki on a negative log10 scale, so that one unit is a factor of ten.

In the case of `CC(C)CC(=O)N[C@@H](C)C(=O)N1CCC[C@H]1C(=O)N[C@@H](CCC(=O)O)C(=O)N[C@@H](CCCCNC(=O)COCCOCCNC(=O)COCCOCCNC(=O)CC[C@H](NC(=O)CCCCCCCCCCCCCCCCC(=O)O)C(=O)O)C(=O)N1CCC[C@H]1C(=O)N[C@@H](CCC(=O)O)C(=O)N[C@@H](CCC(=O)O)C(=O)N[C@@H](CCC(=O)O)C(=O)N[C@@H](C)C(=O)N[C@@H](CO)C(=O)N1CCC[C@H]1C(=O)N[C@@H](CCC(=O)O)C(=O)N[C@@H](CCC(=O)O)C(=O)N[C@H](C(=O)N[C@@H](CCC(N)=O)C(=O)N[C@@H](CCCNC(=N)N)C(=O)N[C@@H](Cc1ccc(O)cc1)C(=O)N[C@@H](Cc1ccc(O)cc1)C(=O)N[C@H](C(=O)N[C@@H](CO)C(=O)N[C@@H](CC(C)C)C(=O)N[C@@H](CCCNC(=N)N)C(=O)N[C@@H](Cc1c[nH]cn1)C(=O)N[C@@H](Cc1ccc(O)cc1)C(=O)N[C@@H](Cc1ccc(O)cc1)C(=O)N[C@@H](CC(N)=O)C(=O)N[C@@H](Cc1c[nH]c2ccccc12)C(=O)N[C@@H](CC(C)C)C(=O)N[C@H](C(=O)N[C@@H](CCCNC(=N)N)C(=O)N[C@@H](CCC(N)=O)C(=O)N[C@@H](CCCNC(=N)N)C(=O)N[C@@H](Cc1ccc(O)cc1)C(N)=O)[C@@H](C)O)C(C)C)[C@@H](C)O` [Compound 80, N{alpha-4}-(3-methylbutanoyl)-N{epsilon-7}-[2-(2-{2-[2-(2-{2-[(4S)-4-carboxy-4-(17-carboxyheptadecanamido)butanamido]ethoxy}ethoxy)acetamido]ethoxy}ethoxy)acetamido]-[4A,7K,9E,11E,17T,18Q,22V,28Y,30W,31L]hPYY (4-36)], the pKi was 8.16. `CC(C)CC(=O)N[C@@H](C)C(=O)N1CCC[C@H]1C(=O)N[C@@H](CCC(=O)O)C(=O)N[C@@H](CCCCNC(=O)COCCOCCNC(=O)COCCOCCNC(=O)CC[C@H](NC(=O)CCCCCCCCCCCCCCCCC(=O)O)C(=O)O)C(=O)N1CCC[C@H]1C(=O)N[C@@H](CCC(=O)O)C(=O)N[C@@H](CCC(=O)O)C(=O)N[C@@H](CC(=O)O)C(=O)N[C@@H](C)C(=O)N[C@@H](CO)C(=O)N1CCC[C@H]1C(=O)N[C@@H](CCC(=O)O)C(=O)N[C@@H](CCC(=O)O)C(=O)N[C@@H](CC(C)C)C(=O)N[C@@H](CCC(N)=O)C(=O)N[C@@H](CCCNC(=N)N)C(=O)N[C@@H](Cc1ccc(O)cc1)C(=O)N[C@@H](C)C(=O)N[C@H](C(=O)N[C@@H](CO)C(=O)N[C@@H](CC(C)C)C(=O)N[C@@H](CCCNC(=N)N)C(=O)N[C@@H](Cc1c[nH]cn1)C(=O)N[C@@H](Cc1ccc(O)cc1)C(=O)N[C@@H](Cc1ccc(O)cc1)C(=O)N[C@@H](CC(N)=O)C(=O)N[C@@H](Cc1c[nH]c2ccccc12)C(=O)N[C@@H](CC(C)C)C(=O)N[C@H](C(=O)N[C@@H](CCCNC(=N)N)C(=O)N[C@@H](CCC(N)=O)C(=O)N[C@@H](CCCNC(=N)N)C(=O)N[C@@H](Cc1ccc(O)cc1)C(N)=O)[C@@H](C)O)C(C)C` [Compound 85, N{alpha-4}-(3-methylbutanoyl)-N{epsilon-7}-[2-(2-{2-[2-(2-{2-[(4S)-4-carboxy-4-(17-carboxyheptadecanamido)butanamido]ethoxy}ethoxy)acetamido]ethoxy}ethoxy)acetamido]-[4A,7K,9E,18Q,21A,22V,28Y,30W,31L]hPYY (4-36)]: the pKi is 8.81.
